Experimental data published in patent US20240408175A1, “BMP9 OR AN AGONIST THEREOF AND ITS USES RELATED TO REDUCING METASTASIS OF CANCER” (THE UAB RESEARCH FOUNDATION, priority 2021, published 2024).
Residues, ends and D or L forms follow the SMILES beside them. *: point of attachment. Cbz = O=C(OCc1ccccc1)*

Tests used:
SOX2 = SOX2 expression by Western blot / qRT-PCR in cancer cells; type: cell-based, human; details: for recovery in SOX2 repression by BMP2: PA1, 1 h pretreatment (5 μM DM, 3 μM ML347); for recovery in SOX2 repression by BMP2 / effect on SOX2 repression by BMP2: then BMP2 24 h; for effect on SOX2 repression by BMP9: 1 h pretreatment (5 μM SB431542, 3 μM ML347, 0.8 μM LDN193189), then BMP9 24 hours; for effect on SOX2 repression by BMP2: PA1, 1 h pretreatment (5 μM SB431542, 0.8 μM LDN193189); for SOX2 protein and mRNA expression: attached and anchorage-independent conditions; for SOX2 protein and RNA levels: 10 nM, 24 hours, PA1 (and OVCAR3) cells
Procedure: Lysate and RNA preparation: 100,000-300,000 cells were seeded in a poly-HEMA coated 6-well plate for indicated times in full serum unless indicated otherwise. Cells were collected by centrifugation and lysed with trizol for RNA extraction or direct 2× lysis buffer for protein lysates.
Xenograft data were analyzed using parametric statistics as described in the legends. Survival curves were analyzed with log-rank statistics. In vitro experiments were analyzed using parametric statistics (ANOVA global test with Dunnett's/Sidak multiple comparison test as post-hoc tests as applicable and described in legend) and presented as the mean±SEM. All real time PCR's are relative semi quantitative RT-PCR's (hereby referred to as qRT-PCR) and are a combined quantitation of a minimum of 3 independent biological trials assayed in triplicate with biological replicates represented as individual scatter dots in the graphs or as indicated in legends. In all cases, statistical significance was set at a threshold of p<0.05. All statistical analyses were conducted with GraphPad Prism Software Ver. 9.0 and specific statistical test information described in figure legends.

[1] = test system: SOX2 promoter methylation; assay: Methylation-specific qPCR of SOX2 promoter; type: cell-based, human; details: for SOX2 promoter methylation, inhibitor alone: 5 μM
Procedure: Genomic DNA was extracted, and bisulfite conversion was performed on 500 ng of gDNA using the MethylAmp DNA modification kit according to manufacturer's instructions. Relative quantitative RT-PCR (qPCR) was performed with methylation-specific and unmethylation-specific primers (see Table 3).

[2] = test system: Phosphorylated SMAD1 (pSMAD1); assay: SMAD1 phosphorylation (Western blot); type: cell-based, human
SOX2 promoter = assay: Chromatin immunoprecipitation (ChIP) at SOX2 promoter regions; type: cell-based, human; details: for SMAD3 occupancy at p1, p3, p4, p5, p6 (ChIP): 1 h treatment
Procedure: ChIP was carried out using a modified version of a previously described protocol (Medeiros et al., 2009). Cells were grown to 80% confluency in 150 mm culture dishes. Cells were fixed at room temperature in 1% Paraformaldehyde solution (dilute 8% PFA in serum free media to get 1%) and rocked for 10 minutes. 10×Glycine was added to the plate and allowed to sit for 5 minutes at room temperature. Cells were scraped down and cell suspension were transferred to a cold centrifuge tube for centrifugation at 720 RCF at 4° C. for 10 minutes. Cells were rinsed with 1X Phosphate buffer saline and centrifugation repeated. Cell pellet was next resuspended in lysis buffers described in (Medeiros et al., 2009) to obtain nuclei pellet. This was followed by chromatin sonication, using QSonica sonicator (model CL-188) for four cycles (30% amplitude for 15 secs ON and 30 secs OFF) to obtain DNA fragments with a length from 150 to 300 bp. 1/10th of the supernatant was stored as input control. ChIP was performed using Protein A magnetic beads (Dynabeads, Invitrogen #10001D) to couple […] ChIP-grade antibodies for SMAD1, SMAD3, H3K27me3, H3K4me3, or rabbit IgG antibody overnight at 4 °C. DNA was purified using the PureLink Quick PCR Purification kit (Thermo Fisher Cat #: K310001) and enrichment of DNA fragments analyzed via relative quantitative RT-PCR (qPCR) using ChIP primers (see Table 2) to specific locations. Negative and positive control regions were included in all analysis.

HEYT30 cells [3] = assay: Paclitaxel cell viability with BMP9 in HEYT30 (FIG. 10, 13A); type: cell-based; details: Homo sapiens, read-out: paclitaxel IC50 concentration
HEY-T30 cells = assay: Flow cytometry, Annexin V / PI apoptosis; type: cell-based, human; details: 3D, 48 hours; 10 nM BMP9, 300 nM paclitaxel or combination
Procedure: 700,000 cells were seeded in 60 mm poly-hema coated culture dishes, followed by incubation with 300 nM paclitaxel and 10 nM BMP9 alone or in simultaneous combination for 48 hours. Cells were centrifuged and resuspended in 1×binding buffer, followed by incubation with Annexin V and PI according to the manufacturer's procedure manual. The stained cell suspension was added to FACS tubes containing 200 μl 1×binding buffer and measured by BD LSRFortessa flow cytometer. The data were analyzed using BD FACSDiva (Becton Dickinson, NJ, USA) software. Annexin V-positive and PI-negative cells were considered to be in the early apoptotic phase, Annexin V-negative and PI-positive cells were considered to be in the necrosis phase, cells having positive staining for both Annexin-V and PI were considered to undergo late apoptosis and cells negative for Annexin V and PI were considered to be live cells.

HEYT30 cells [4] = assay: CellTiter Glo 3D cell viability assay, paclitaxel with BMP9; details: read-out: paclitaxel IC50 concentration, 3D conditions
[5] = test system: OC cells (PA1, OVCA420, and OVCAR3); assay: Live-dead analysis of anchorage-independent spheroids, TGF-β1/activin A; type: cell-based, human; details: 1 nM TGFβ1, 10 nM activin, 24 hrs
Procedure: (§1) For Live/Dead analysis under anchorage independence, 1,000 cells were seeded in 96-well hydrogel-coated ultra-low attachment (ULA) plates (Corning #4515) for times indicated. Growth factor treatment was done under low serum 2.5% FBS condition (Cells were plated in 10% FBS to allow spheroid formation before beginning treatment). Cells were then stained with 2 μM Calcein-AM and 4 μM Ethidium-homodimer for 30 min before imaging. z-stacked images were obtained using the Zeiss LSM700 Confocal microscope (Microscopy and Flow Cytometry Core, University of South Carolina) and NIKON A1 Confocal microscope (UAB High Resolution Imaging Facility). Fluorescent quantification was performed using ImageJ Fiji software to calculate the Corrected Total Cell Fluorescent (CTCF)=Integrated Density−(Area of selected cell×Mean fluorescence of background readings) per spheroid.

[6] = test system: 1-kb SOX2 promoter reporter; assay: pGL3-SOX2 promoter-reporter luciferase assay in HEK293 cells; type: cell-based, human
Procedure: HEK293 cells were transfected with the pGL3-SOX2 promoter-luciferase reporter plasmid construct and SV40-renilla for 24h. […] According to the manufacturer's instruction, cells were collected and lysed in […] passive lysis buffer. To measure luciferase activity, […] of lysate was added to […] of dual Luciferase Assay Reagent, and luminescence was quantitated using a luminometer (Biotek).

PA1 cells = assay: Live/Dead analysis under anchorage independence (anoikis), PA1 cells; type: cell-based, human; details: 10 nM for 24 hrs after 48 hours anchorage independence
Procedure: as §1

Nc1ncn([C@@H]2O[C@H](CO)[C@@H](O)[C@H]2O)c(=O)n1 [50-Aza, 50-azacytidine]
SOX2 mRNA downregulation by BMP9 (SOX2; PA1, 5 μM with 10 nM rhBMP9): suppressed | SOX2 mRNA, inhibitor alone (SOX2; SKOV3 cells, 5 μM): concomitant increase | BMP9-induced SOX2 transcriptional repression (SOX2; SKOV3 cells, 5 μM with 10 nM rhBMP9): repressed | BMP9-induced SOX2 promoter methylation ([1]; PA1, 5 μM 48 h pretreatment, then rhBMP9 24 h): abrogated | SOX2 promoter methylation, inhibitor alone ([1]; PA1 cells): minimal effect | SOX2 promoter methylation, inhibitor alone ([1]; SKOV3 cells, 48 hours): suppressed SOX2 promoter methylation significantly

c1cc(-c2cnn3cc(-c4ccc(OCCN5CCCCC5)cc4)cnc23)ccn1 [DM, Dorsomorphin]
recovery in SOX2 levels in the presence of BMP9 (SOX2; PA1, 5 μM pretreatment 1 h, then rhBMP9 24 hours): 34.3% | recovery in SOX2 repression by BMP2 (SOX2): 23%

CC[C@H](C)n1cc(C)c2c(C(=O)NCc3c(C)cc(C)[nH]c3=O)cc(-c3ccc(N4CCNCC4)nc3)cc21 [GSK126]
SOX2 repression by BMP9 (SOX2; 5 μM GSK126, multiple cell lines): abrogated

c1ccc2c(-c3cnn4cc(-c5ccc(N6CCNCC6)cc5)cnc34)ccnc2c1 [LDN193189]
increase of SOX2 protein levels at baseline in the absence of exogenous ligand (SOX2; 0.8 μM LDN193189, PA1): 33 | effect on SOX2 repression by BMP9 (SOX2): blocked | effect on SOX2 repression by BMP2 (SOX2): blocked | BMP2- and BMP9-induced SMAD1/5 phosphorylation ([2]; 0.8 μM LDN193189, PA1 and OVCAR3): Full inhibition | BMP9-induced H3K27me3 occupancy on the SOX2 promoter (ChIP) (SOX2 promoter; PA1, rhBMP9 + LDN193189): significantly reduced

CC(C)C[C@@H](C=O)NC(=O)[C@H](CC(C)C)NC(=O)[C@H](CC(C)C)NC(=O)OCc1ccccc1 [MG132] (Cbz-Leu-Leu-Leu-aldehyde)
effect on BMP's ability to repress SOX2 (SOX2; PA1, 0.5 μM MG132 1 hour, then rhBMP2/9): No effect

COc1ccc(-c2cnc3c(-c4cccc5ncccc45)cnn3c2)cc1 [ML347]
baseline SOX2 levels in the absence of exogenous ligand (SOX2; 3 μM ML347, PA1): increased | effect on SOX2 repression by BMP9 (SOX2): abrogated | recovery in SOX2 repression by BMP2 (SOX2): 72% | BMP9-induced phosphorylation of SMAD1 ([2]; 3 μM ML347): completely suppressed | suppression of BMP2-induced SMAD1 phosphorylation ([2]; 3 μM ML347): 40%

NC(=O)c1ccc(-c2nc(-c3ccc4c(c3)OCO4)c(-c3ccccn3)[nH]2)cc1 [SB431542]
TGF-β1-induced SOX2 increases (SOX2; 5 μM SB431542 1 h, then 400 pM TGF-β1 24 h): suppressed | effect on SOX2 repression by BMP9 (SOX2): did not significantly alter | effect on SOX2 repression by BMP2 (SOX2): did not alter | pSMAD1 in response to BMP2 and -9 ([2]; 5 μM inhibitor): no effects | TGF-β1-induced H3K4me3 enrichment (ChIP) (SOX2 promoter; PA1, TGF-β1 + SB431542): abrogated

CC(=O)O[C@H]1C(=O)[C@@]2(C)[C@H]([C@H](OC(=O)c3ccccc3)[C@]3(O)C[C@H](OC(=O)[C@H](O)[C@@H](NC(=O)c4ccccc4)c4ccccc4)C(C)=C1C3(C)C)[C@]1(OC(C)=O)CO[C@@H]1C[C@@H]2O [paclitaxel]
IC50 (HEYT30 cells [3]; 24-hour pretreatment 1 nM BMP9, then combination 48 hours): 90.8 nM | IC50 (HEYT30 cells [3]; 24-hour pretreatment 5 nM BMP9, then combination 48 hours): 22.6 nM | IC50 (HEYT30 cells [3]; 24-hour pretreatment 10 nM BMP9, then combination 48 hours): 4.1 nM | IC50 (HEYT30 cells [3]; 48 h, simultaneous 1 nM BMP9, 48 hours): 91.7 nM | IC50 (HEYT30 cells [3]; 48 h, simultaneous 5 nM BMP9, 48 hours): 89 nM | IC50 (HEYT30 cells [3]; 48 h, simultaneous 10 nM BMP9, 48 hours): 73 nM | IC50 (HEYT30 cells [3]; 48 h, untreated control (no BMP9), simultaneous series, 48 hours): 107 nM | IC50 (HEYT30 cells [3]; untreated control (no BMP9), 24-hour pretreatment series): 113 nM | apoptosis in cells (HEY-T30 cells): 12.8% | IC50 (HEYT30 cells [4]; 24-hour pretreatment 5 nM BMP9): 286 nM | IC50 (HEYT30 cells [4]; 24-hour pretreatment 10 nM BMP9): 211 nM

TGF-β1: transforming growth factor β1 ligand
live/dead ratio of spheroids [5]: increased | SOX2 protein and mRNA expression (SOX2): increased | luciferase activity of SOX2 promoter reporter ([6]; TGF-β1 400 pM, 24 h): increased | SMAD3 occupancy at p1, p3, p4, p5, p6 (ChIP) (SOX2 promoter): consistent SMAD3 enrichment | H3K4me3 at SMAD3 motifs p1, p3, p4, p5, p6 (ChIP) (SOX2 promoter; PA1, 1-h TGF-β1): enrichment

activin A: activin A, TGF-β family member
SOX2 protein and mRNA expression (SOX2): increased | luciferase activity of SOX2 promoter reporter ([6]; 10 nM activin A, 24 hours): increased | SMAD3 occupancy at p1, p3, p4, p5, p6 (ChIP) (SOX2 promoter): occupied by SMAD3

B1: BMP10: recombinant human BMP10, highest sequence homology to BMP9 (protein, UniProt O95393 317-424, looked up)
Bone morphogenetic protein 10: NAKGNYCKRTPLYIDFKEIGWDSWIIAPPGYEAYECRGVCNYPLAEHLTPTKHAIIQALVHLKNSQKASKACCVPTKLEPISILYLDKGVVTYKFKYEGMAVSECGCR
anoikis (PA1 cells): did not alter | SOX2 protein and RNA levels (SOX2): did not alter | activation of SMAD1/5 [2]: failed to activate

B2: BMP4: recombinant human BMP4, BMP ligand (protein, UniProt P12644 293-408, looked up)
Bone morphogenetic protein 4: SPKHHSQRARKKNKNCRRHSLYVDFSDVGWNDWIVAPPGYQAFYCHGDCPFPLADHLNSTNHAIVQTLVNSVNSSIPKACCVPTELSAISMLYLDEYDKVVLKNYQEMVVEGCGCR
decrease of live-to-dead cell ratio (PA1 cells): 1.93 | SOX2 protein and RNA levels (SOX2): downregulation
